Source: ChEMBL document CHEMBL1139670, “Novel 4-N-substituted aryl pent-2-ene-1,4-dione derivatives of piperazinyloxazolidinones as antibacterials” (2006)
In brackets after ≈: the same amount, converted by molar mass. Activity calls are given as the source filed them. No cut-off for these calls is given here.

Key:
Format in all cases: functional
Bacillus pumilus = test: Antibacterial activity against Bacillus pumilus ATCC 14348
[1] = system: Staphylococcus epidermidis; test: Antibacterial activity against Staphylococcus epidermidis ATCC 155
Enterococcus faecalis [2] = test: Antibacterial activity against Enterococcus faecalis ATCC 35550
Staphylococcus aureus [3] = test: Antibacterial activity against Staphylococcus aureus ATCC 25923
Staphylococcus aureus [4] = test: Antibacterial activity against Staphylococcus aureus ATCC 9144
Staphylococcus aureus [5] = test: Antibacterial activity against Staphylococcus aureus ATCC 14154
Staphylococcus aureus [6] = test: Antibacterial activity against Staphylococcus aureus ATCC 29213
Staphylococcus aureus [7] = test: Antibacterial activity against methicillin-resistant Staphylococcus aureus ATCC 700699
Streptococcus pyogenes = test: Antibacterial activity against Streptococcus pyogenes ATCC 14289
Staphylococcus aureus [8] = test: Antibacterial activity against linezolid-resistant Staphylococcus aureus NRS 119
Enterococcus faecalis [9] = test: Antibacterial activity against Enterococcus faecalis ATCC 14506
Streptococcus pneumoniae = test: Antibacterial activity against penicillin-resistant Streptococcus pneumoniae ATCC 700904
Enterococcus faecalis [10] = test: Antibacterial activity against vancomycin-resistant Enterococcus faecalis ATCC 700802

For `COc1ccc(C(=O)/C=C/C(=O)N2CCN(c3ccc(N4C[C@H](C/N=C(/C)S)OC4=O)cc3F)CC2)cc1`, the MIC (Bacillus pumilus) was 0.5 mg/L (≈ 0.925 µM), the MIC [1] was 0.12 mg/L (≈ 0.222 µM) and the MIC (Enterococcus faecalis [2]) was 0.25 mg/L (≈ 0.462 µM). The MIC (Staphylococcus aureus [3]) was 0.25 mg/L (≈ 0.462 µM), the MIC (Staphylococcus aureus [4]) was at most 0.12 mg/L and the MIC (Staphylococcus aureus [5]) was 0.25 mg/L (≈ 0.462 µM). It also gave an MIC (Staphylococcus aureus [6]) of at most 0.12 mg/L, an MIC (Staphylococcus aureus [7]) of 0.5 mg/L (≈ 0.925 µM) and an MIC (Streptococcus pyogenes) of 0.25 mg/L (≈ 0.462 µM). The MIC (Staphylococcus aureus [8]) was over 16 mg/L, the MIC (Enterococcus faecalis [9]) was 1 mg/L (≈ 1.85 µM) and the MIC (Streptococcus pneumoniae) was 1 mg/L (≈ 1.85 µM).
In the case of `CC(=O)NC[C@H]1CN(c2ccc(N3CCN(C(=O)/C=C/C(=O)c4ccc(NC(C)=O)cc4)CC3)c(F)c2)C(=O)O1`, the MIC (Bacillus pumilus) is reported as 0.5 mg/L (≈ 0.906 µM), the MIC [1] is reported as at most 0.12 mg/L and the MIC (Enterococcus faecalis [2]) is reported as 0.25 mg/L (≈ 0.453 µM). The MIC (Staphylococcus aureus [3]) was 0.5 mg/L (≈ 0.906 µM), the MIC (Staphylococcus aureus [4]) was at most 0.12 mg/L and the MIC (Staphylococcus aureus [5]) was at most 0.12 mg/L. The MIC (Staphylococcus aureus [6]) was at most 0.12 mg/L, the MIC (Staphylococcus aureus [7]) was 1 mg/L (≈ 1.81 µM) and the MIC (Streptococcus pyogenes) was at most 0.12 mg/L. For the same molecule, the MIC (Staphylococcus aureus [8]) was over 16 mg/L, the MIC (Enterococcus faecalis [9]) was 1 mg/L (≈ 1.81 µM) and the MIC (Streptococcus pneumoniae) was “inactive”.
For `CC(=O)/C=C/C(=O)N1CCN(c2ccc(N3C[C@H](CNC(C)=O)OC3=O)cc2F)CC1`, the MIC (Bacillus pumilus) was 0.5 mg/L (≈ 1.16 µM), the MIC [1] was 0.25 mg/L (≈ 0.578 µM) and the MIC (Enterococcus faecalis [2]) was 1 mg/L (≈ 2.31 µM). The MIC (Staphylococcus aureus [3]) was 0.25 mg/L (≈ 0.578 µM), the MIC (Staphylococcus aureus [4]) was 1 mg/L (≈ 2.31 µM) and the MIC (Staphylococcus aureus [5]) was 1 mg/L (≈ 2.31 µM). For the same molecule, the MIC (Staphylococcus aureus [7]) was 1 mg/L (≈ 2.31 µM), the MIC (Staphylococcus aureus [8]) was over 16 mg/L and the MIC (Enterococcus faecalis [9]) was 4 mg/L (≈ 9.25 µM). The MIC (Enterococcus faecalis [10]) was 2 mg/L (≈ 4.62 µM) and the MIC (Streptococcus pneumoniae) was 0.5 mg/L (≈ 1.16 µM).
Molecule `CC(=O)NC[C@H]1CN(c2ccc(N3CCN(C(=O)/C=C/C(=O)[O-])CC3)c(F)c2)C(=O)O1.[Na+]` has an MIC (Bacillus pumilus) of over 16 mg/L, an MIC [1] of over 16 mg/L and an MIC (Enterococcus faecalis [2]) of over 16 mg/L. It also gave an MIC (Staphylococcus aureus [3]) of over 16 mg/L.
Work on `CC(=O)NC[C@H]1CN(c2ccc(N3CCOCC3)c(F)c2)C(=O)O1` [LINEZOLID] yielded an MIC (Bacillus pumilus) of 2 mg/L (≈ 5.93 µM), an MIC [1] of 1 mg/L (≈ 2.96 µM) and an MIC (Staphylococcus aureus [3]) of 1 mg/L (≈ 2.96 µM). For the same molecule, the MIC (Staphylococcus aureus [7]) was 1 mg/L (≈ 2.96 µM), the MIC (Streptococcus pyogenes) was 0.25 mg/L (≈ 0.741 µM) and the MIC (Staphylococcus aureus [8]) was over 16 mg/L. The MIC (Streptococcus pneumoniae) was 0.25 mg/L (≈ 0.741 µM).
With `CC(=O)NC[C@H]1CN(c2ccc(N3CCN(C(=O)/C=C/C(=O)c4cccc5ccccc45)CC3)c(F)c2)C(=O)O1` the MIC (Bacillus pumilus) was 1 mg/L (≈ 1.84 µM), the MIC [1] was 2 mg/L (≈ 3.67 µM) and the MIC (Enterococcus faecalis [2]) was 0.5 mg/L (≈ 0.918 µM). It also gave an MIC (Staphylococcus aureus [3]) of 2 mg/L (≈ 3.67 µM), an MIC (Staphylococcus aureus [4]) of 4 mg/L (≈ 7.35 µM) and an MIC (Staphylococcus aureus [5]) of 4 mg/L (≈ 7.35 µM). For the same molecule, the MIC (Staphylococcus aureus [6]) was 2 mg/L (≈ 3.67 µM), the MIC (Staphylococcus aureus [7]) was 8 mg/L (≈ 14.7 µM) and the MIC (Streptococcus pyogenes) was 0.5 mg/L (≈ 0.918 µM). It also gave an MIC (Staphylococcus aureus [8]) of over 16 mg/L, an MIC (Enterococcus faecalis [9]) of 1 mg/L (≈ 1.84 µM) and an MIC (Enterococcus faecalis [10]) of 8 mg/L (≈ 14.7 µM). For the same molecule, the MIC (Streptococcus pneumoniae) was 2 mg/L (≈ 3.67 µM).
For `CC(=O)NC[C@H]1CN(c2ccc(N3CCN(C(=O)/C=C/C(=O)c4ccccc4)CC3)c(F)c2)C(=O)O1`, the MIC (Bacillus pumilus) was 1 mg/L (≈ 2.02 µM), the MIC [1] was 0.12 mg/L (≈ 0.243 µM) and the MIC (Enterococcus faecalis [2]) was 0.5 mg/L (≈ 1.01 µM). The MIC (Staphylococcus aureus [3]) was at most 0.12 mg/L, the MIC (Staphylococcus aureus [4]) was at most 0.12 mg/L and the MIC (Staphylococcus aureus [5]) was at most 0.12 mg/L. The MIC (Staphylococcus aureus [6]) was 0.25 mg/L (≈ 0.506 µM), the MIC (Staphylococcus aureus [7]) was at most 0.12 mg/L and the MIC (Streptococcus pyogenes) was 0.25 mg/L (≈ 0.506 µM). It also gave an MIC (Staphylococcus aureus [8]) of 4 mg/L (≈ 8.09 µM), an MIC (Enterococcus faecalis [9]) of 2 mg/L (≈ 4.04 µM) and an MIC (Enterococcus faecalis [10]) of 2 mg/L (≈ 4.04 µM). For the same molecule, the MIC (Streptococcus pneumoniae) was at most 0.12 mg/L.
`CC(=O)NC[C@H]1CN(c2ccc(N3CCN(C(=O)CO)CC3)c(F)c2)C(=O)O1` [EPEREZOLID] was tested, and the MIC (Bacillus pumilus) was 1 mg/L (≈ 2.54 µM), the MIC (Enterococcus faecalis [2]) was 2 mg/L (≈ 5.07 µM) and the MIC (Staphylococcus aureus [3]) was 2 mg/L (≈ 5.07 µM). The MIC (Staphylococcus aureus [4]) was 2 mg/L (≈ 5.07 µM), the MIC (Staphylococcus aureus [5]) was 2 mg/L (≈ 5.07 µM) and the MIC (Staphylococcus aureus [6]) was 2 mg/L (≈ 5.07 µM). The MIC (Staphylococcus aureus [7]) was 1 mg/L (≈ 2.54 µM), the MIC (Streptococcus pyogenes) was 0.5 mg/L (≈ 1.27 µM) and the MIC (Staphylococcus aureus [8]) was over 16 mg/L. For the same molecule, the MIC (Enterococcus faecalis [9]) was 1 mg/L (≈ 2.54 µM), the MIC (Enterococcus faecalis [10]) was 1 mg/L (≈ 2.54 µM) and the MIC (Streptococcus pneumoniae) was 0.5 mg/L (≈ 1.27 µM).
`CC(=O)NC[C@H]1CN(c2ccc(N3CCN(C(=O)/C=C/c4ccccc4)CC3)c(F)c2)C(=O)O1` showed an MIC (Bacillus pumilus) of 0.5 mg/L (≈ 1.07 µM), an MIC [1] of 1 mg/L (≈ 2.14 µM) and an MIC (Enterococcus faecalis [2]) of 1 mg/L (≈ 2.14 µM). For the same molecule, the MIC (Staphylococcus aureus [3]) was 1 mg/L (≈ 2.14 µM), the MIC (Staphylococcus aureus [4]) was 2 mg/L (≈ 4.29 µM) and the MIC (Staphylococcus aureus [5]) was 2 mg/L (≈ 4.29 µM). The MIC (Staphylococcus aureus [6]) was 2 mg/L (≈ 4.29 µM), the MIC (Staphylococcus aureus [7]) was 1 mg/L (≈ 2.14 µM) and the MIC (Streptococcus pyogenes) was 1 mg/L (≈ 2.14 µM). It also gave an MIC (Staphylococcus aureus [8]) of over 16 mg/L, an MIC (Enterococcus faecalis [9]) of 0.5 mg/L (≈ 1.07 µM) and an MIC (Enterococcus faecalis [10]) of 0.5 mg/L (≈ 1.07 µM). For the same molecule, the MIC (Streptococcus pneumoniae) was 0.5 mg/L (≈ 1.07 µM).
`CC(=O)NC[C@H]1CN(c2ccc(N3CCN(C(=O)/C=C/C(=O)c4ccc(Br)cc4)CC3)c(F)c2)C(=O)O1` was tested, and the MIC (Bacillus pumilus) was 0.12 mg/L (≈ 0.209 µM), the MIC [1] was 0.25 mg/L (≈ 0.436 µM) and the MIC (Enterococcus faecalis [2]) was 2 mg/L (≈ 3.49 µM). The MIC (Staphylococcus aureus [3]) was at most 0.12 mg/L, the MIC (Staphylococcus aureus [4]) was 4 mg/L (≈ 6.98 µM) and the MIC (Staphylococcus aureus [5]) was 2 mg/L (≈ 3.49 µM). The MIC (Staphylococcus aureus [6]) was 4 mg/L (≈ 6.98 µM), the MIC (Staphylococcus aureus [7]) was 4 mg/L (≈ 6.98 µM) and the MIC (Staphylococcus aureus [8]) was over 16 mg/L. For the same molecule, the MIC (Enterococcus faecalis [9]) was 2 mg/L (≈ 3.49 µM), the MIC (Enterococcus faecalis [10]) was over 16 mg/L and the MIC (Streptococcus pneumoniae) was 2 mg/L (≈ 3.49 µM).
In the case of `COc1ccc(C(=O)/C=C/C(=O)N2CCN(c3ccc(N4C[C@H](CNC(C)=O)OC4=O)cc3F)CC2)cc1`, the MIC (Bacillus pumilus) is reported as 0.5 mg/L (≈ 0.953 µM), the MIC [1] is reported as 0.25 mg/L (≈ 0.477 µM) and the MIC (Enterococcus faecalis [2]) is reported as 0.5 mg/L (≈ 0.953 µM). For the same molecule, the MIC (Staphylococcus aureus [3]) was 0.5 mg/L (≈ 0.953 µM), the MIC (Staphylococcus aureus [4]) was 0.5 mg/L (≈ 0.953 µM) and the MIC (Staphylococcus aureus [5]) was at most 0.12 mg/L. The MIC (Staphylococcus aureus [6]) was 0.25 mg/L (≈ 0.477 µM), the MIC (Staphylococcus aureus [7]) was 1 mg/L (≈ 1.91 µM) and the MIC (Streptococcus pyogenes) was at most 0.12 mg/L. It also gave an MIC (Staphylococcus aureus [8]) of over 16 mg/L, an MIC (Enterococcus faecalis [9]) of 1 mg/L (≈ 1.91 µM) and an MIC (Enterococcus faecalis [10]) of 2 mg/L (≈ 3.81 µM). It also gave an MIC (Streptococcus pneumoniae) of 2 mg/L (≈ 3.81 µM).
